Laboratory results from US20230265151A1, “GIP/GLP1 CO-AGONIST COMPOUNDS” (priority 2020, published 2023).
Like-named read-outs stand apart in the source and are kept apart here.

How the values were obtained:
Type in all cases: cell-based
hGCGR = target: T1, hGCGR (Homo sapiens, UniProt P47871); assay: Functional cAMP formation (HTRF) in HEK-293 clonal cells expressing hGCGR, 0.1% bovine casein, without or with 1.0% human serum albumin; details: cAMP, incubated at 37° C., 0.1% bovine casein (no human serum albumin), geometric mean
T1 construct: expressed in transfected cells
T1 sequence (P47871 26-477): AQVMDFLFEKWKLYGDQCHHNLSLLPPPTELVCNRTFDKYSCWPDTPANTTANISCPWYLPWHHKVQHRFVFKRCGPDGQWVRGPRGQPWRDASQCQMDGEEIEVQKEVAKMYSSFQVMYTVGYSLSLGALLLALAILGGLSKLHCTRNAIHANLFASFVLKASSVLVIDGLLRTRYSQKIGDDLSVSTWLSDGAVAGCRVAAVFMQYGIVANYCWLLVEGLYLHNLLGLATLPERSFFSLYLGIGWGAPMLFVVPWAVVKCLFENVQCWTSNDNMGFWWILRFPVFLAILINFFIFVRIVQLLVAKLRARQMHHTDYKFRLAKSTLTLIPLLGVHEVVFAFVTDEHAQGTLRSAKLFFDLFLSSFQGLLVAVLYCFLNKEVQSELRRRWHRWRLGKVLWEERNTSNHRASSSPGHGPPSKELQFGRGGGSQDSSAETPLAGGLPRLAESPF
In short: (§1)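 Readings of the HTRF 665/620 nm ratio, which falls as cAMP rises, were converted to nM cAMP using a standard curve after 30 min peptide exposure at 37° C.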

hGLP-1R = hGLP-1R (Homo sapiens, UniProt P43220); assay: Functional cAMP formation (HTRF) in HEK-293 clonal cells expressing hGLP-1R, 0.1% bovine casein, without or with 1.0% human serum albumin; parameters: expressed in transfected cells
hGLP-1R, sequence (P43220 24-463): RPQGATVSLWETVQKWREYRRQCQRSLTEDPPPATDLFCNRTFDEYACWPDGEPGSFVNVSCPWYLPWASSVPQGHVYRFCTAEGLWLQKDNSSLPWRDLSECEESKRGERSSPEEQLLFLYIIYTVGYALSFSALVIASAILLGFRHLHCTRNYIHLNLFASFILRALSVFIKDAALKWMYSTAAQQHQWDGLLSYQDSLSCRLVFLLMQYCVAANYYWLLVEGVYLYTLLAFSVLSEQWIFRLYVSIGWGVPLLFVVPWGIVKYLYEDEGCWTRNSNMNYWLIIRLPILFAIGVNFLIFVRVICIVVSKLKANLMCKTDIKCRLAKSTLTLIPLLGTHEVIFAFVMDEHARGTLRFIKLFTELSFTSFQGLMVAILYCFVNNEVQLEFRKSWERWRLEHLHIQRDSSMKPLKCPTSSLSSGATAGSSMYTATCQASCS
Method: After a 30-min incubation at 37° C., the resulting increase in intracellular cAMP is quantitatively determined using a CisBio cAMP Dynamic 2 HTRF Assay Kit (62AM4PEJ). Briefly, cAMP levels within the cell are detected by adding the cAMP-d2 conjugate in cell lysis buffer (10 µL) followed by the antibody anti-cAMP-Eu^3+-Cryptate, also in cell lysis buffer (10 µL). The resulting competitive assay is incubated for at least 60 min at room temperature, and then is detected using a PerkinElmer Envision® instrument with excitation at 320 nm and emission at 665 nm and 620 nm. Envision units (emission at 665 nm/620 nm* 10,000) are inversely proportional to the amount of cAMP present and are converted to nM cAMP per well us-ing a cAMP standard curve. […] A relative EC50 value and percent top (Emax) are derived by non-linear regression analysis using the percent maximal response vs. the concentration of peptide added, fitted to a four-parameter logistic equation.

hGIPR = target: T2, hGIPR (Homo sapiens, UniProt P48546); assay: Functional cAMP formation (HTRF) in HEK-293 clonal cells expressing hGIPR, 0.1% bovine casein, without or with 1.0% human serum albumin; details: HEK293, percent of maximal response to GIP(1-42)NH2; 37° C., 0.1% bovine casein; arithmetic mean; read-out: hGIPR Emax, % ± SEM
T2 construct: expressed in transfected cells
T2 sequence (P48546 22-466): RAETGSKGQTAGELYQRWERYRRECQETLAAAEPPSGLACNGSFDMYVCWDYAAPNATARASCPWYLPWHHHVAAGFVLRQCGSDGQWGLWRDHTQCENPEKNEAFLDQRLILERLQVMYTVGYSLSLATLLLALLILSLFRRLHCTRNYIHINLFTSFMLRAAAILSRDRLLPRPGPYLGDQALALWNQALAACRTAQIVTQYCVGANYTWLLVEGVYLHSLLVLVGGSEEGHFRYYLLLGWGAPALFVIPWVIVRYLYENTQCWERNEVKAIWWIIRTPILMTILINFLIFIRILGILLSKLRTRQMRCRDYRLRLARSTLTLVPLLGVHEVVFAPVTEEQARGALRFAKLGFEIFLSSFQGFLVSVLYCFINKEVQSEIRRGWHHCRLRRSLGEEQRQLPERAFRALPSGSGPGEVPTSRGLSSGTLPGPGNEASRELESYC
In short: as §1

SMILES	EC50 (hGCGR; hGCGR EC50, nM (SEM, n)) [nM]	Emax (hGLP-1R; HEK293, read-out: hGLP-1R Emax, % ± SEM, percent of maximal response to GLP-1(7-36)NH2, 37° C., 0.1% bovine casein, arithmetic mean) [%]	EC50 (hGLP-1R; hGLP-1R EC50, nM (SEM, n), cAMP, incubated at 37° C., 0.1% bovine casein (no human serum albumin), geometric mean) [nM]	EC50 (hGCGR; read-out: hGCGR EC50, nM (SEM, n)) [nM]	Emax (hGIPR) [%]
CC[C@H](C)[C@H](NC(=O)[C@H](CC(C)C)NC(=O)[C@](C)(Cc1ccc(O)cc1)NC(=O)[C@@H](CCC(=O)O)NC(=O)[C@@H](NC(=O)[C@H](Cc1ccccc1)NC(=O)[C@H](CCC(=O)O)NC(=O)C(C)(C)NC(=O)[C@H](CCC(N)=O)NC(=O)[C@H](C)NC(=O)[C@H](CCCCNC(=O)COCCOCCNC(=O)COCCOCCNC(=O)CC[C@H](NC(=O)CCCCCCCCCOc1ccc(C(=O)O)cc1)C(=O)O)NC(=O)[C@H](CCCN)NC(=O)[C@H](CC(=O)O)NC(=O)[C@H](CC(C)C)NC(=O)[C@](C)(CC(C)C)NC(=O)[C@@H](NC(=O)[C@H](CO)NC(=O)[C@H](Cc1ccncc1)NC(=O)[C@H](CC(=O)O)NC(=O)[C@H](CO)NC(=O)[C@@H](NC(=O)[C@](C)(Cc1ccccc1F)NC(=O)[C@@H](NC(=O)CNC(=O)[C@H](CCC(=O)O)NC(=O)C(C)(C)NC(=O)[C@@H](N)Cc1ccc(O)cc1)[C@@H](C)O)[C@@H](C)O)[C@@H](C)CC)[C@@H](C)CC)C(=O)N[C@@H](CCCCNC(=O)COCCOCCNC(=O)COCCOCCNC(=O)CC[C@H](NC(=O)CCCCCCCCCOc1ccc(C(=O)O)cc1)C(=O)O)C(=O)NCC(=O)NCC(=O)N1CCC[C@H]1C(=O)N[C@@H](CO)C(=O)N[C@@H](CO)C(=O)NCC(=O)N[C@@H](C)C(=O)N1CCC[C@H]1C(=O)N1CCC[C@H]1C(=O)N1CCC[C@H]1C(=O)N[C@@H](CO)C(N)=O [Example 129]	> 9950	97.9	1.28	–	–
CC[C@H](C)[C@H](NC(=O)[C@H](CC(C)C)NC(=O)[C@](C)(Cc1ccc(O)cc1)NC(=O)[C@@H](CCC(=O)O)NC(=O)[C@@H](NC(=O)[C@H](Cc1ccccc1)NC(=O)[C@H](CCC(=O)O)NC(=O)C(C)(C)NC(=O)[C@H](CCC(N)=O)NC(=O)[C@H](C)NC(=O)[C@H](CCCCNC(=O)COCCOCCNC(=O)COCCOCCNC(=O)CC[C@H](NC(=O)CCCCCCCCCCCCC(=O)O)C(=O)O)NC(=O)[C@H](CCCN)NC(=O)[C@H](CC(=O)O)NC(=O)[C@H](CC(C)C)NC(=O)[C@](C)(CC(C)C)NC(=O)[C@@H](NC(=O)C(C)(C)NC(=O)[C@@H](NC(=O)[C@H](CC(=O)O)NC(=O)[C@H](CO)NC(=O)[C@@H](NC(=O)[C@](C)(Cc1ccccc1)NC(=O)[C@@H](NC(=O)CNC(=O)[C@H](CCC(=O)O)NC(=O)C(C)(C)NC(=O)[C@@H](N)Cc1ccc(O)cc1)[C@@H](C)O)[C@@H](C)O)C(C)C)[C@@H](C)CC)[C@@H](C)CC)C(=O)N[C@@H](CCC(=O)O)C(=O)NCC(=O)NCC(=O)N[C@@H](CCCCNC(=O)COCCOCCNC(=O)COCCOCCNC(=O)CC[C@H](NC(=O)CCCCCCCCCCCCC(=O)O)C(=O)O)C(=O)N[C@@H](CO)C(=O)N[C@@H](CO)C(=O)NCC(=O)N[C@@H](C)C(=O)N1CCC[C@H]1C(=O)N1CCC[C@H]1C(=O)N1CCC[C@H]1C(=O)N[C@@H](CO)C(N)=O [Example 180]	–	–	–	> 9950	86.8
